Assays:
KRas wild type = test: Ras GTP Binding Domain Inhibition Assay (Ras Superfamily Assay); settings: for KRas wild type + SOS: % inh.: with SOS; for KRas wild type: % inh.: without SOS
In short: (§1)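 Ni-plate capture of His-tagged protein (10-30 μg/mL, o/n 4° C); cpd 20 μM or dilution series, 1% DMSO, 3 h RT ± Sos 556-1049 last h; 100 nM Cy-labelled GTP 45 min RT; 3× wash; fluorescence read.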

Rac-1 = target: T1, Rac-1 (Homo sapiens, UniProt P63000); test: as above; settings: read-out: Rac-1: % inh.
T1 construct: made in house
In short: as §1

KRas G12D mutant = test: as above; settings: for KRas G12D mutant + SOS: % inh.: with SOS; for KRas G12D mutant: % inh.: without SOS
In short: as §1

MAPK p38 phosphorylation = test: MAPK p38 Activation Assay (western blot), Panc-1; assay type: cell-based, human; settings: at 10 μM, Panc-1 pancreatic cancer cell line; starred symbols = activation
In short: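 Panc-1 cells (KRas G12D) were treated with compound for 6 h at 37 °C, at 10 μM or as serial dilutions for IC50, with 0.3% DMSO. Method 1 used overnight serum-starved cells (0.5% FBS) stimulated with 1.5 ng/ml EGF for 15 min; Method 2 used unstimulated cells in 10% FBS. Phospho-p38 (Thr180/Tyr182) was detected by western blot.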

IL6 = test: IL-6 Quantification Assay (ELISA), LPS-stimulated RAW 264.7; assay type: cell-based; design: inhibition: dose or concentration left out as unconfirmed; settings: Mus musculus, RAW264.7; read-out: IL-6: % inh.

Structure (SMILES) | KRas wild type + SOS: % inh. (KRas wild type; at 20 μM) | KRas wild type: % inh. (KRas wild type; at 20 μM) | inhibition at 20 µM (Rac-1) [%] | KRas G12D mutant + SOS: % inh. (KRas G12D mutant; at 20 μM) | KRas G12D mutant: % inh. (KRas G12D mutant; at 20 μM) | % inh of MAPK p38 in Panc-1 (MAPK p38 phosphorylation) | inhibition (IL6) [%] | KRas wild type + SOS: % inh. (KRas wild type; 20 μM compound) | KRas wild type: % inh. (KRas wild type; 20 μM compound) | KRas G12D mutant + SOS: % inh. (KRas G12D mutant; 20 μM compound) | KRas G12D mutant: % inh. (KRas G12D mutant; 20 μM compound)
CO[C@H]1CC[C@@H](Nc2nc(-c3nccn3C)nn3cc(-c4ccncc4)c(-c4ccccc4)c23)C1 (racemic) [Compound 200, rac N-((1R,3S)-3-Methoxycyclopentyl)-2-(1-methyl-1H-imidazol-2-yl)-5-phenyl-6-(pyridin-4-yl)pyrrolo[2,1-f][1,2,4]triazin-4-amine] | B (B = 26-49% inhibition) | B (B = 26-49% inhibition) | 26 to 49 | B (B = 26-49% inhibition) | B (B = 26-49% inhibition) | E (E = 1-30% inhibition) | 1 to 24 | – | – | – | –
Cc1c(-c2ccn(C)n2)cn2nc(-c3nccn3C)nc(Nc3cc4c(cn3)CCO4)c12 [Compound 221, N-(5-Methyl-2-(1-methyl-1H-imidazol-2-yl)-6-(1-methyl-1H-pyrazol-3-yl)pyrrolo[2,1-f][1,2,4]triazin-4-yl)-2,3-dihydrofuro[3,2-c]pyridin-6-amine] | D (D = 76-100% inhibition) | D (D = 76-100% inhibition) | 76 to 100 | D (D = 76-100% inhibition) | D (D = 76-100% inhibition) | E (E = 1-30% inhibition) | 25 to 49 | – | – | – | –
CO[C@H]1C[C@H](Nc2nc(-c3nccn3C)nn3cc(-c4ccncc4)c(-c4ccccc4)c23)C1 [Compound 199, N-((1r,3r)-3-Methoxycyclobutyl)-2-(1-methyl-1H-imidazol-2-yl)-5-phenyl-6-(pyridin-4-yl)pyrrolo[2,1-f][1,2,4]triazin-4-amine] | B (B = 26-49% inhibition) | A (A = 1-25% inhibition) | 26 to 49 | B (B = 26-49% inhibition) | B (B = 26-49% inhibition) | E (E = 1-30% inhibition) | 75 to 100 | – | – | – | –
CO[C@H]1C[C@H](Nc2nc(-c3nccn3C)nn3cc(-c4cnccc4C)c(-c4ccccc4)c23)C1 [Compound 218, N-((1r,3r)-3-Methoxycyclobutyl)-2-(1-methyl-1H-imidazol-2-yl)-6-(4-methylpyridin-3-yl)-5-phenylpyrrolo[2,1-f][1,2,4]triazin-4-amine] | A (A = 1-25% inhibition) | A (A = 1-25% inhibition) | 1 to 25 | A (A = 1-25% inhibition) | A (A = 1-25% inhibition) | F* (F* = 31-74% activation) | 1 to 24 | – | – | – | –
COc1ccnc(Nc2nc(-c3nccn3CCN)nn3cc(-c4ccn(C)n4)c(C)c23)c1 [Compound 188, 2-(1-(2-Aminoethyl)-1H-imidazol-2-yl)-N-(4-methoxypyridin-2-yl)-5-methyl-6-(1-methyl-1H-pyrazol-3-yl)pyrrolo[2,1-f][1,2,4]triazin-4-amine] | D (D = 76-100% inhibition) | D (D = 76-100% inhibition) | 76 to 100 | D (D = 76-100% inhibition) | D (D = 76-100% inhibition) | E (E = 1-30% inhibition) | 50 to 74 | – | – | – | –
COCC1CCN(c2nc(-c3ccccn3)nn3cc(-c4ccn(C(C)C)n4)c(C)c23)C1 (racemic) [Compound 10, rac 6-(1-Isopropyl-1H-pyrazol-3-yl)-4-(3-(methoxymethyl)pyrrolidin-1-yl)-5-methyl-2-(pyridin-2-yl)pyrrolo[2,1-f][1,2,4]triazine] | – | – | 1 to 25 | – | – | G* (G* = 75-99% activation) | 25 to 49 | 0 (0 = 0% inhibition) | A (A = 1-25% inhibition) | 0 (0 = 0% inhibition) | A (A = 1-25% inhibition)
CO[C@H]1C[C@H](Nc2nc(-c3nccn3C)nn3cc(-c4ccc(CN)cc4)c(-c4ccccc4)c23)C1.Cl [Compound 206, 6-(4-(Aminomethyl)phenyl)-N-((1r,3r)-3-methoxycyclobutyl)-2-(1-methyl-1H-imidazol-2-yl)-5-phenylpyrrolo[2,1-f][1,2,4]triazin-4-amine hydrochloride salt] | A (A = 1-25% inhibition) | A (A = 1-25% inhibition) | 1 to 25 | A (A = 1-25% inhibition) | A (A = 1-25% inhibition) | E (E = 1-30% inhibition) | 75 to 100 | – | – | – | –
COCCCS(=O)(=O)Nc1nc(-c2nccn2C)nn2cc(-c3ccccc3)c(-c3ccccc3)c12 [Compound 213, 3-Methoxy-N-(2-(1-methyl-1H-imidazol-2-yl)-5,6-diphenylpyrrolo[2,1-f][1,2,4]triazin-4-yl)propane-1-sulfonamide] | D (D = 76-100% inhibition) | D (D = 76-100% inhibition) | 50 to 75 | D (D = 76-100% inhibition) | D (D = 76-100% inhibition) | F (F = 31-74% inhibition) | 25 to 49 | – | – | – | –
CO[C@@H]1C[C@H]1Nc1nc(-c2nccn2C)nn2cc(-c3ccncc3)c(-c3ccccc3)c12 (racemic) [Compound 197, rac N-((1R,2R)-2-methoxycyclopropyl)-2-(1-methyl-1H-imidazol-2-yl)-5-phenyl-6-(pyridin-4-yl)pyrrolo[2,1-f][1,2,4]triazin-4-amine] | A (A = 1-25% inhibition) | 0 (0 = 0% inhibition) | 1 to 25 | A (A = 1-25% inhibition) | A (A = 1-25% inhibition) | F (F = 31-74% inhibition) | 50 to 74 | – | – | – | –
CO[C@H]1C[C@H](S(=O)(=O)Nc2nc(-c3nccn3C)nn3cc(-c4ccccc4)c(-c4ccccc4)c23)C1 [Compound 214, (1r,3r)-3-Methoxy-N-(2-(1-methyl-1H-imidazol-2-yl)-5,6-diphenylpyrrolo[2,1-f][1,2,4]triazin-4-yl)cyclobutane-1-sulfonamide] | C (C = 50-75% inhibition) | C (C = 50-75% inhibition) | 50 to 75 | C (C = 50-75% inhibition) | C (C = 50-75% inhibition) | G (G = 75-99% inhibition) | 1 to 24 | – | – | – | –
CO[C@H]1C[C@H](Nc2nc(-c3nccn3C)nn3cc(-c4cccnc4)c(-c4ccccc4)c23)C1 [Compound 192, N-((1r,3r)-3-Methoxycyclobutyl)-2-(1-methyl-1H-imidazol-2-yl)-5-phenyl-6-(pyridin-3-yl)pyrrolo[2,1-f][1,2,4]triazin-4-amine] | B (B = 26-49% inhibition) | B (B = 26-49% inhibition) | 1 to 25 | B (B = 26-49% inhibition) | B (B = 26-49% inhibition) | E* (E* = 1-30% activation) | 75 to 100 | – | – | – | –
CO[C@H]1C[C@H](Nc2nc(-c3nccn3C)nn3cc(-c4ccccc4)c(-c4ccccc4)c23)C1 [Compound 203, N-((1r,3r)-3-Methoxycyclobutyl)-2-(1-methyl-1H-imidazol-2-yl)-5,6-diphenylpyrrolo[2,1-f][1,2,4]triazin-4-amine] | 0 (0 = 0% inhibition) | 0 (0 = 0% inhibition) | 1 to 25 | 0 (0 = 0% inhibition) | 0 (0 = 0% inhibition) | G (G = 75-99% inhibition) | 75 to 100 | – | – | – | –
COc1ccnc(Nc2nc(-c3nccn3C)nn3cc(-c4ccn(CCN)n4)c(C)c23)c1 [Compound 187, 6-(1-(2-Aminoethyl)-1H-pyrazol-3-yl)-N-(4-methoxypyridin-2-yl)-5-methyl-2-(1-methyl-1H-imidazol-2-yl)pyrrolo[2,1-f][1,2,4]triazin-4-amine] | D (D = 76-100% inhibition) | D (D = 76-100% inhibition) | 76 to 100 | D (D = 76-100% inhibition) | D (D = 76-100% inhibition) | E* (E* = 1-30% activation) | 50 to 74 | – | – | – | –
COc1cccc(-c2cn3nc(-c4nccn4C)nc(N[C@H]4C[C@H](OC)C4)c3c2-c2ccccc2)c1C [Compound 209, 6-(3-methoxy-2-methylphenyl)-N-((1r,3r)-3-methoxycyclobutyl)-2-(1-methyl-1H-imidazol-2-yl)-5-phenylpyrrolo[2,1-f][1,2,4]triazin-4-amine] | 0 (0 = 0% inhibition) | A (A = 1-25% inhibition) | 26 to 49 | A (A = 1-25% inhibition) | A (A = 1-25% inhibition) | H (H = 100% inhibition) | 75 to 100 | – | – | – | –

From patent US12459951B2, “Compounds that interact with RAS superfamily proteins for treatment of cancers, inflammatory diseases, rasopathies, and fibrotic disease” (SHY Therapeutics, LLC, priority 2022, dated 2025)
